Assays:
[1] = Disruption of 6his-tagged KRAS G12C mutant/BRAF RBD complex (unknown origin) incubated for 3 hrs in the presence of CYPA by TR-FRET assay; parameters: species or system Homo sapiens
[2] = Disruption of 6-his tagged KRAS G12D mutant/BRAF RBD complex (unknown origin) incubated for 3 hrs in the presence of CYPA by TR-FRET assay; parameters: species or system Homo sapiens
[3] = Disruption of 6-his tagged KRAS G12V mutant/BRAF RBD complex (unknown origin) incubated for 3 hrs in the presence of CYPA by TR-FRET assay; parameters: species or system Homo sapiens
[4] = test system: NCI-H358; test: Anticancer activity against human NCI-H358 cells harboring KRAS G12C mutant assessed as inhibition of cell viability incubated for 72 hrs by cell counting kit 8 method; format: functional, cell-based; details: NCI-H358, 72 h
[5] = test system: AGS; test: Anticancer activity against human AGS cells harboring KRAS G12D mutant assessed as inhibition of cell viability incubated for 72 hrs by cell counting kit 8 method; format: functional, cell-based
[6] = test system: SW-620; test: Anticancer activity against human SW620 cells harboring KRAS G12V mutant assessed as inhibition of cell viability incubated for 72 hrs by cell counting kit 8 method; format: functional, cell-based; details: SW-620, 72 h
[7] = Inhibition of ERK phosphorylation in human NCI-H358 cells harboring KRAS G12C mutant incubated for 4 hrs by absorbance based analysis; format: cell-based; details: NCI-H358, 4 h
[8] = Inhibition of ERK phosphorylation in human AGS cells harboring KRAS G12D mutant incubated for 4 hrs by absorbance based analysis; format: cell-based
[9] = Inhibition of ERK phosphorylation in human SW620 cells harboring KRAS G12V mutant incubated for 4 hrs by absorbance based analysis; format: cell-based; details: SW-620, 4 h

Compound	IC50 [1]	IC50 [2]	IC50 [3]	IC50 [4]	IC50 [5]	IC50 [6]	IC50 [7]	IC50 [8]	IC50 [9]
CO[C@@H](C)c1ncccc1-c1c2c3cc(cc4c3n1CCC4)-c1cc(O)cc(c1)C[C@H](NC(=O)[C@H](C(C)C)N(C)C(=O)C1(F)CCN(C(=O)[C@H](F)Cl)CC1)C(=O)N1CCC[C@H](N1)C(=O)OCC(C)(C)C2	6 nM	1880 nM	164 nM	–	–	–	–	–	–
CO[C@@H](C)c1ncc(N2CCOCC2)cc1-c1c2c3cc(cc4c3n1CC(F)(F)C4)-c1csc(n1)C[C@H](NC(=O)[C@H](C(C)C)N(C)C(=O)C1(F)CCN(C(=O)[C@H](F)Cl)CC1)C(=O)N1CCC[C@H](N1)C(=O)OCC(C)(C)C2	–	–	–	8 nM	16 nM	26 nM	–	–	–
CO[C@@H](C)c1ncc(N2CCOCC2)cc1-c1c2c3cc(cc4c3n1CCC4)-c1csc(n1)C[C@H](NC(=O)[C@H](C(C)C)N(C)C(=O)C1(F)CCN(C(=O)[C@H](F)Cl)CC1)C(=O)N1CCC[C@H](N1)C(=O)OCC(C)(C)C2	–	–	–	–	–	–	1 nM	> 10000 nM	23 nM
CO[C@@H](C)c1ncccc1-c1c2c3cc(cc4c3n1CCO4)-c1cc(O)cc(c1)C[C@H](NC(=O)[C@H](C(C)C)N(C)C(=O)C1(F)CCN(C(=O)[C@H](F)Cl)CC1)C(=O)N1CCC[C@H](N1)C(=O)OCC(C)(C)C2	16 nM	3910 nM	445 nM	–	–	–	–	–	–
CO[C@@H](C)c1ncc(N2CCN(C)CC2)cc1-c1c2c3cc(cc4c3n1CCC4)-c1csc(n1)C[C@H](NC(=O)[C@H](C(C)C)N(C)C(=O)C1(F)CCN(C(=O)[C@H](F)Cl)CC1)C(=O)N1CCC[C@H](N1)C(=O)OCC(C)(C)C2	–	–	–	2 nM	292 nM	107 nM	–	–	–
CO[C@@H](C)c1ncc(N2CCN(C)CC2)cc1-c1c2c3cc(cc4c3n1CCC4)-c1csc(n1)C[C@H](NC(=O)[C@H](C(C)C)N1CCC3(CN(C(=O)[C@H](F)Cl)C3)C1=O)C(=O)N1CCC[C@H](N1)C(=O)OCC(C)(C)C2	–	–	–	–	–	–	19 nM	62 nM	38 nM
